Source: patent US11149006B2, “Compounds as neurokinin-1 receptor antagonists and uses thereof” (XW LABORATORIES INC., priority 2018, dated 2021)

Legend:
[1] = biological target: human NK-3 receptor (NK-3/HEK293) (Homo sapiens (Human), UniProt P29371); assay: NK-3 calcium flux FLIPR antagonist assay; assay type: cell-based; details: for inhibition at 10 µM: HEK293, NK-3, max dose 10000 nM; for IC50: NK-3 FLIPR antagonist mode
Method: (§1) The potential antagonist activity of Compound I and IV on human NK-1/2/3 receptor was evaluated by calcium flux FLIPR assay. The results are shown in the following Table 2, while the NK-1 fitting dose-response curves for Compound I and IV are shown in FIGS. 2A and 2B, respectively.
(§2) 1. NK-1, NK-2 and NK-3 Calcium Flux FLIPR assays:
(§3) Materials: Cell Lines: NK-1/HEK293, NK-2/HEK293, NK-3/HEK293. Media: DMEM, Invitrogen (Cat #11960), FBS, Corning (Cat #35-076-CV), G418, Invitrogen (Cat #10131-027), and Blasticidin, Invitrogen (Cat #A11139). Reagent: Fluo-4 Direct, (Invitrogen, Cat #F10471).
(§4) Experimental procedure for NK-1, NK-2 and NK-3 calcium flux FLIPR assay: Perform the assay in the following steps: 1) Cell preparation: thaw each cell (NK-1, NK-2 and NK-3) in 37° C. water bath with gentle shaking, transfer cell suspensions to 50 mL conical tubes and add plating media to 45 mL mark. Count cells using a ViCell for concentration. Re-suspend the cells in the growth media to a concentration of 10×10^5 per mL. Add 20 μL per well of the cell suspension to the 384-well plates (20,000 cells/well). Place the cells at 37° C. 5% CO2 incubator overnight. 2) Calcium Flux FLIPR assay: a) Prepare Probenecid reagent by adding 1 mL FLIPR Assay Buffer to 77 mg probenecid to make 250 mM solution. b) Prepare assay reagent (2×8 μM Fluo-4 Direct™ Loading Buffer): Thaw one vial of Fluo-4 Direct™ crystals, add 10 mL of FLIPR Assay Buffer to the Vial; add 0.2 mL of Probenecid to each 10 mL vial of Fluo-Direct. c) Compounds preparation: The compounds are serially diluted in 100% DMSO 1:3 for 10 pts by Echo. Then dispense 900 nL of compounds to the 384-compound plate. Remove cell plate from incubator and gently dispense 20 μL of 2×Fluo-4 Direct™ to 384 well cell culture plate. Incubate for 50 min at 37° C. 5% CO2 and 10 min at room temperature. Remove cell plate from incubator and place it into FLIPR (Molecular Devices). Place compound plate and tip box into FLIPR. For the dose response curve (DRC) plate: a) Run the Protocol on FLIPRTETRA. b) Transfer 10 μL of assay buffer from 384-well plate to the cell plates. c) Read fluorescence signal. d) Transfer 10 μL of the compounds from the DRC plate to the cell plates. e) Read fluorescence signal. f) Calculate the “Max-Min” starting from Read 90 to Maximum allowed. […] For the compound plate in antagonist test: a) Run the Protocol on FLIPRTETRA. b) Transfer 10 μL of references and compounds from the compound plate to the cell plates. c) Read fluorescence signal. d) Transfer 10 μL of 6×EC80 concentrations of agonist reference compounds to the cell plates. e) Read fluorescence signal. f) For antagonist test, calculate the “Max-Min” starting from Read 90 to Maximum allowed. h) Analyze the data using GraphPad Prism 5.0.

[2] = biological target: human NK-1 receptor (NK-1/HEK293) (Homo sapiens (Human), UniProt P25103); assay: NK-1 calcium flux FLIPR antagonist assay; assay type: cell-based; details: for inhibition at 10 µM: HEK293, NK-1, max dose 10000 nM; for IC50: NK-1 FLIPR antagonist mode
Method: as §1, §2, §3, §4

[3] = biological target: human NK-2 receptor (NK-2/HEK293) (Homo sapiens (Human), UniProt P21452); assay: NK-2 calcium flux FLIPR antagonist assay; assay type: cell-based; details: for inhibition at 10 µM: HEK293, NK-2, max dose 10000 nM; for IC50: NK-2 FLIPR antagonist mode
Method: as §1, §2, §3, §4

[4] = Rat pharmacokinetic study; assay type: in vivo, male Sprague-Dawley rats; details: male, Sprague-Dawley, plasma
Method: For rat pharmacokinetic studies, male Sprague-Dawley rats were housed individually and fasted overnight before use. For Compound I and reference compound CP-122721, a single dose was administered to each rat in two groups (n=5/group) via intravenous (i.v.) administration at 4 mg/kg and oral (p.o.) administration of 20 mg/kg, respectively.
The vehicle used for i.v. administration was 10% HP-β-CD. The vehicle used for p.o. administration was 0.5% CMC-Na/0.1% Tween 80 in saline. Blood samples were collected at specified time-points following administration to individual rats within i.v. (pre-dose, 10 min, 0.5 h, 1 h, 2 h, 4 h, 6 h, 8 h, 12 h) and p.o. (pre-dose, 15 min, 0.5 h, 1 h, 2 h, 4 h, 8 h, 12 h, 24 h) group. Blood samples were clotted on ice immediately, plasma samples were then isolated by centrifugation and stored frozen (−80° C.) until further analysis. The concentrations of Compound I and CP-122721 were individually determined by LC/MS/MS assay. Various pharmacokinetic parameters were calculated using Phoenix™ WinNonlin® software. To quantify the bioconversion efficiency of the Compound I and CP-122721 in the circulation system, the bioavailability of Compound I and CP-122721 after p.o. administration was calculated.

[5] = tested on: cisplatin-induced emesis in ferrets; assay: Cisplatin-induced acute and delayed emesis in the ferret; assay type: in vivo; details: for reduction of retching+vomiting, entire delayed phase: delayed phase 24-72 h
Method: To investigate the anti-emetic potential of Compound I by preventing cisplatin-induced acute and delayed emesis in the ferret. Aprepitant was used as a positive control in this study.
40 castrated male ferrets weighing between 1.2 and 2.3 kg were used, which were obtained from Wuxi Sangosho Biotechnology Co. Ltd. (Wuxi, Jiangsu, China) and housed in groups of 2-3 at 24±1° C. with at 50±5% humidity. Artificial lighting was provided between 06:00 to 18:00 h. Water and dry pelleted cat chow were given ad libitum, unless otherwise stated. All experiments were conducted under license from the Government of the Hong Kong SAR and the Animal Experimentation Ethics Committee, The Chinese University of Hong Kong.
Compound I and aprepitant were supplied by XW Laboratories, Inc, China and were dissolved in distilled water. Cisplatin (Lot #MKBR1947V) was from Sigma-Aldrich, St. Louis, USA, and was dissolved in 0.9% w/v saline adjusted to pH 4 with 0.1N HCl. Doses were expressed as the free base, unless otherwise stated.
On the day of the experiment, groups of ferrets were administered Compound I (0.1, 0.3, 1 mg/kg, p.o.), aprepitant (1 mg/kg, p.o.), or distilled water (vehicle control, 1 mL/kg, p.o.) 2 h before cisplatin (5 mg/kg, i.p.) and then the treatments were continued at 24 h intervals (at 24 and 48 h post cisplatin). Emesis was characterized by rhythmic abdominal contractions that were either associated with the forceful oral expulsion of solid or liquid material from the gastrointestinal tract (i.e., vomiting), or not associated with the passage of material (i.e., retching movements). Consecutive episodes of retching and/or vomiting were considered separate when the animal changed its location in the observation cage, or when the interval between episodes exceeded 5 seconds.
GraphPad Prism 8 (GraphPad Software, La Jolla, Calif., United States) was used to perform statistical comparisons. Animal emesis behaviours like retching and vomiting were analyzed using a one-way analysis of variance followed by Tukey's multiple comparisons tests. The results are expressed as the mean±SEM. In all cases, differences between treatment groups were considered significant when the p value was less than 0.05.

human NK-1 receptor = human NK-1 receptor (Homo sapiens (Human), UniProt P25103); assay: Tag-Lite Tachykinin NK-1 receptor competitive binding assay (TR-FRET); details: Tag-Lite NK-1 labeled cells, read-out: IC50 on hNK-1 receptor
Method: Human Tachykinin NK-1 receptor binding assay was performed using CisBio's Tag-Lite® Ligand binding assay. The homogeneous binding assay employees the time resolved fluorescence energy transfer (TR-FRET) technology. The potential inhibitory effect of Compound I and V on human NK-1 receptor was evaluated by TagLite® Tachykinin NK-1 receptor binding assay.
1. Tag-Lite® Tachykinin NK-1 receptor binding assay.
Materials: Tag-Lite® Tachykinin NK-1 labeled Cells, Tachykinin NK-1 Receptor red agonist Fluorescent Ligand (10 μMx50 μL), Tag-Lite Buffer (TLB) (5×concentration) (CisBio, Redford, Mass., U.S.A). [Sar9, Met(O2)11]-Substance P-Polypeptides (Tocris, Bristol, UK).
2. Competitive binding (Ki determination): Competitive binding assay measures the dissociation constant, To perform the assay, the compound is titrated into a solution containing a fixed concentration of fluorescent ligand and a fixed amount of cells.
Experimental procedure for competitive binding (Ki determination): Perform CisBio's Tag-Lite® Tachykinin NK-1 binding assay according to manufacturer's protocol. […] Incubate 2 h at room temperature, read the Signal665nm and Signal620nm using Evision. Data analysis was performed by calculating the Ratio following the formula below, the competitive binding data for each compound was analyzed with GraphPad Prism 5.0, and IC50 value was calculated for each compound.

[6] = 1 mg/kg p.o., day 2 (non-significant)
[7] = 1 mg/kg p.o., entire 72 h observation period

Chain of human NK-3 receptor (NK-3/HEK293) (P29371 whole entry): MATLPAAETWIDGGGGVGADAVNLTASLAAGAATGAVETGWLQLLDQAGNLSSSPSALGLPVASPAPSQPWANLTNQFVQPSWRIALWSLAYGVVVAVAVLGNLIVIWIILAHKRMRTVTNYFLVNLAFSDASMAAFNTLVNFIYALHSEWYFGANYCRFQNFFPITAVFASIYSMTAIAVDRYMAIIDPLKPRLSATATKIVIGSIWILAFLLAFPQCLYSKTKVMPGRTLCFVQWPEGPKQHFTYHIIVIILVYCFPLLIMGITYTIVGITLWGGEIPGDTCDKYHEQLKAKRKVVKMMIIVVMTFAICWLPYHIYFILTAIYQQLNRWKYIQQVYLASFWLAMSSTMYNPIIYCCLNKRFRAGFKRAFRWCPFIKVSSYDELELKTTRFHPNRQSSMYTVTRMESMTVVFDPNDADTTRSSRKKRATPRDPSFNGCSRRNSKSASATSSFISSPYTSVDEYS
Chain of human NK-2 receptor (NK-2/HEK293) (P21452 whole entry): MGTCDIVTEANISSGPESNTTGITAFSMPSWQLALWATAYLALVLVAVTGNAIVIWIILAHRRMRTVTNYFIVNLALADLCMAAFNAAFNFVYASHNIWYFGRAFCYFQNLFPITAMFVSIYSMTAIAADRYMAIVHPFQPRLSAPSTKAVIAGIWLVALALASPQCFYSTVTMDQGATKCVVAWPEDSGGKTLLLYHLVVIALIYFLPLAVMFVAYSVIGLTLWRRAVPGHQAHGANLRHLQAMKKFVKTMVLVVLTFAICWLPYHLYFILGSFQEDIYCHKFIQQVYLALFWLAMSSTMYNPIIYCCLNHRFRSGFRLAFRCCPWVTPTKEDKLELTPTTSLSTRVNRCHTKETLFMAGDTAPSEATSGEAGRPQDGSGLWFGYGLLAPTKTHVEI
Chain of human NK-1 receptor (NK-1/HEK293) (P25103 whole entry): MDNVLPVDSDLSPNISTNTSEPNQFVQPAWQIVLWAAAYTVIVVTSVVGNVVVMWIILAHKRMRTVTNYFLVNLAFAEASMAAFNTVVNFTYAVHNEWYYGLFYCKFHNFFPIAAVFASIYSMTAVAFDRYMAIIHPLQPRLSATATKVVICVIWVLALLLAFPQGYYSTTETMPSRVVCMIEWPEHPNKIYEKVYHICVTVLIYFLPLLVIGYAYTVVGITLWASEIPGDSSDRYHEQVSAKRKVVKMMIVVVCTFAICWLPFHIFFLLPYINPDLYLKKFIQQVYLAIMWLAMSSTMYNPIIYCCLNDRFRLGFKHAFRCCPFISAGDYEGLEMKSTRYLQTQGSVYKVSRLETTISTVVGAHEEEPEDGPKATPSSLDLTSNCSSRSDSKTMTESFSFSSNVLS
Chain of human NK-1 receptor (P25103 whole entry): as above

Row | Compound | inhibition at 10 µM [1] [%] | IC50 [1] [nM] | inhibition at 10 µM [2] [%] | IC50 [2] [nM] | inhibition at 10 µM [3] [%] | IC50 [3] [nM] | reduction of retches+vomits, overall combined acute and delayed response ([5]; 1 mg/kg p.o., 0-72 h) [%] | reduction of retching+vomiting response ([5]; 1 mg/kg p.o., day 1 (acute)) [%] | reduction of retching+vomiting response [5, 6] [%] | reduction of retching+vomiting response ([5]; 1 mg/kg p.o., day 3) [%] | reduction of retching+vomiting, entire delayed phase ([5]; 1 mg/kg p.o.) [%] | reduction of total number of episodes [5, 7] [%] | reduction of total number of retches [5, 7] [%] | reduction of total number of vomits [5, 7] [%] | further results
1 | [2H]C([2H])([2H])Oc1ccc(S(F)(F)(F)(F)F)cc1CN[C@H]1CCCN[C@H]1c1ccccc1 [Compound IV, (2S,3S)—N-(2-(methoxy-d3)-5-(pentafluorosulfanyl)benzyl)-2-phenylpiperidin-3-amine] | 29 | > 10000 | 101 | 22.2 | 1 | > 10000 |  |  |  |  |  |  |  |  | 
2 | COc1ccc(S(F)(F)(F)(F)F)cc1CN[C@H]1CCCN[C@H]1c1ccccc1 [Compound I, (2S,3S)—N-(2-methoxy-5-(pentafluorosulfanyl)benzyl)-2-phenylpiperidin-3-amine] | 26 | > 10000 | 102 | 6.15 | 15 | > 10000 | 52.2 | 64.5 | 22.7 | 67.5 | 41.3 | 59.0 | 51.3 | 57.3 | AUC(0-t) ([4]; iv, 4 mg/kg): 663 ng·h/mL; half-life ([4]; iv, 4 mg/kg): 1.84 h; bioavailability ([4]; oral, p.o. 20 mg/kg vs i.v. 4 mg/kg): 22.4%; AUC(0-t) ([4]; po, 20 mg/kg): 740 ng·h/mL; Cmax ([4]; po, 20 mg/kg): 202 ng/mL; Tmax ([4]; po, 20 mg/kg): 1.4 h; half-life ([4]; po, 20 mg/kg): 1.9 h; reduction of retches+vomits, overall combined acute and delayed response ([5]; 0.1 mg/kg p.o., 0-72 h): 23.9%; reduction of retches ([5]; 0.1 mg/kg p.o., entire 72 h observation period): 21.9%; IC50 (human NK-1 receptor): 0.64 nM
3 | C[C@@H](O[C@H]1OCCN(Cc2n[nH]c(=O)[nH]2)[C@H]1c1ccc(F)cc1)c1cc(C(F)(F)F)cc(C(F)(F)F)c1 [aprepitant, reference compound] |  |  |  |  |  |  | 67.4 | 76.5 | 46.7 | 73.3 | 59.4 | 64.0 | 67.9 | 64.6 | superiority in reduction of retches+vomits over Compound I 0.1 mg/kg ([5]; aprepitant 1 mg/kg p.o. vs Compound I 0.1 mg/kg, 0-72 h): 43.5%; superiority in reduction of retches over Compound I 0.1 mg/kg ([5]; aprepitant 1 mg/kg p.o. vs Compound I 0.1 mg/kg, 72 h): 46%
